Results on 71 compounds are retold here after ChEMBL document CHEMBL3886179, “Substituted 6, 7-dialkoxy-3-isoquinoline derivatives as inhibitors of phosphodiesterase 10 (PDE 10A)” (2015).

The structures appear in SMILES notation. Values joined by “and” are separate entries in the source; they are usually repeats but may differ in a detail not shown here. Equal values may be shown once.

A word on the IC50: it is the concentration that inhibits the measured activity by half.

Sequence of cAMP and cAMP-inhibited cGMP 3',5'-cyclic phosphodiesterase 10A (Q9Y233 whole entry): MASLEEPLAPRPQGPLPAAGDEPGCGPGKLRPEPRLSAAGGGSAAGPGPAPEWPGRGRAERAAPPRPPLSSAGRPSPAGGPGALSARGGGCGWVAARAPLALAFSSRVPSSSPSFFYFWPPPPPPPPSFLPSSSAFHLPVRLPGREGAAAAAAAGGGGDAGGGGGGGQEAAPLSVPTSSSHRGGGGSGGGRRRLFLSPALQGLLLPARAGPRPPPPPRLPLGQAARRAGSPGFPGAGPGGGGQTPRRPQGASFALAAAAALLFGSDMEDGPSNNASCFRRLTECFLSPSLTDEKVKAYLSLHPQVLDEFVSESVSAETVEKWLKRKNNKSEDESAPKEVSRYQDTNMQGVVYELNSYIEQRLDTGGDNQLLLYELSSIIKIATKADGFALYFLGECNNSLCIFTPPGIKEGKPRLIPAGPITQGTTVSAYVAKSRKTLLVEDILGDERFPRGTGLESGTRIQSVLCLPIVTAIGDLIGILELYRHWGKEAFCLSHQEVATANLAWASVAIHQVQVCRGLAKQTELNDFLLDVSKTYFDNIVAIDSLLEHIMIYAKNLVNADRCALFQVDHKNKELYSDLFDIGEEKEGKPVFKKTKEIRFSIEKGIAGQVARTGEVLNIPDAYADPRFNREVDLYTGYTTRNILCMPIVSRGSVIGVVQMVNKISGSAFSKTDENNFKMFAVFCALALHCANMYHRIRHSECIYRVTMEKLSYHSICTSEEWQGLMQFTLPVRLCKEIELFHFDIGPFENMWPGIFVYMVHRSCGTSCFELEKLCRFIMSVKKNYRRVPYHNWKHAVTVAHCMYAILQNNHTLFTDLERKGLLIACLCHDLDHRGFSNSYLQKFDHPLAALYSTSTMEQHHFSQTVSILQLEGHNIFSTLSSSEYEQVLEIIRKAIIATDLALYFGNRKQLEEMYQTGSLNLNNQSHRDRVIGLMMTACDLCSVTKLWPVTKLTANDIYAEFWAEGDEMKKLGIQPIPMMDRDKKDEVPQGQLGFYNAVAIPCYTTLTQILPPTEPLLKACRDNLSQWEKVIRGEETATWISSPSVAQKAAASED

The assay addresses cAMP and cAMP-inhibited cGMP 3',5'-cyclic phosphodiesterase 10A (Homo sapiens, UniProt Q9Y233). The assay is described as follows: Diaxonhit Phosphodiesterase Assay: The phosphodiesterase assay was developed using the LANCE cAMP kit (PerkinElmer). The assay buffer contained HBSS with 5 mM HEPES, 0.1% BSA, and 1.5 mM MgCl2, pH 7.4. PDE10A (BPS Bioscience) was used at 200 pg/well (with a specific activity of 3200 pmole/min/ug with assay conditions: 10 mM Tris-HCl, pH 7.4, 10 mM MgCl2, 1 mM MnCl2, 200 uM cAMP, 2.5 kU 5' nucleotidase, 37° C., 20 min) and PDE4D3 (BPS Bioscience) was used at 100 pg/well (with a specific activity of 32713 pmole/min/ug with assay conditions: 10 mM Tris-HCl, pH 7.4, 10 mM MgCl2, 1 mM MnCl2, 200 uM cAMP, 2.5 kU 5' nucleotidase, 37° C., 20 min). The Biotin-cAMP tracer, supplied in 10 mmol/L Tris-HCl buffered (pH 8.0) salt solution with 1 mmol/L ethylenediaminetetraacetic acid (EDTA), 0.1% bovine serum albumin (BSA), and 0.05% sodium azide, is used at a dilution of 1/375. The assay detection mixture contained the LANCE Eu-W8044 labeled streptavidin 1/2250 (supplied in 50 mmol/L Tris-HCl buffer). (In general: Time-resolved FRET reads energy transfer from a long-lived donor to a nearby acceptor.)
As to `COc1cc2c(Cc3cnc4ccccc4c3)cnc(C3CC3)c2cc1OC`, the IC50 was 42 nM.

Turning to `CCOc1cccc2ccc(Cc3cncc4cc(OC)c(OC)cc34)nc12`, the 50% inhibitory concentration (IC50) worked out at 49 nM.

As for `CCCc1ncc(Cc2ccc3cccc(OCC(N)=O)c3n2)c2cc(OC)c(OC)cc12`, the concentration for half-maximal inhibition (IC50) is 1.4 nM and 5.3 nM.

Take `COc1cc2c[n+]([O-])cc(Cc3ccc4oc5ccccc5c4c3)c2cc1OC`: the 50% inhibitory concentration (IC50) came to 31 nM. Regarding `CCOc1cc2c(Cc3ccc4oc5ccccc5c4c3)cncc2cc1OC`, the IC50 was 287 nM. With `COc1cc2c(Cc3ccc4ccccc4c3)cnc(C)c2cc1OC`, the IC50 came out at 194 nM.

As to `CCCc1ncc(Cc2ccc3cccc(OCCO)c3n2)c2cc(OC)c(OC)cc12`, the IC50 came to 6.6 nM.

On to `COc1cc2cncc(Cc3ccc4cccc(O)c4n3)c2cc1OC`, for which the IC50 turned out to be 23 nM.

Regarding `CCc1ncc(Cc2ccc3oc4ccccc4c3c2)c2cc(OC)c(OC)cc12`, the half-maximal inhibitory concentration (IC50) is 339 nM. With `CCc1ncc(Cc2cnc3ccccc3c2)c2cc(OC)c(OC)cc12`, the 50% inhibitory concentration (IC50) was determined as 19 nM. Take `CCCc1ncc(Cc2cc3cc(OC)ccc3nc2NCC)c2cc(OC)c(OC)cc12`: the half-maximal inhibitory concentration (IC50) is 9.7 nM. For `COc1cc2c(Cc3ccc4oc5ccccc5c4c3)cnc(C)c2cc1OC`, the IC50 is 184 nM. Under `CCCc1ncc(Cc2cc3ccccc3cn2)c2cc(OC)c(OC)cc12` stands 159 nM.

For the compound `CCOc1cc2c(Cc3cnc4ccccc4c3)cncc2cc1OC`, the 50% inhibitory concentration (IC50) was 92 nM.

As to `COc1cc2cncc(Cc3cnc4ccccc4c3)c2cc1OC`, the concentration for half-maximal inhibition (IC50) came out at 13 nM. As for `CCOC(=O)COc1cccc2ccc(Cc3cncc4cc(OC)c(OC)cc34)nc12`, the figure is 51 nM; as for `CCCc1ncc(Cc2cnc3ccccc3c2)c2cc(OC)c(OC)cc12`, 11 nM. Regarding `COc1cc2cncc(Cc3ccc4c(c3)CCC(C)(C)O4)c2cc1OC`, the IC50 amounted to 81 nM. Under `CCc1ncc(Cc2cc3ccccc3cn2)c2cc(OC)c(OC)cc12` stands 32 nM; under `COc1cc2c(Cc3ccc4nc(C)ccc4c3)cnc(-c3ccccc3)c2cc1OC`, 148 nM; under `CCc1ncc(Cc2ccc3cccc(NC(N)=O)c3n2)c2cc(OC)c(OC)cc12`, 58 nM.

`COc1cc2cncc(Cc3ccc4ccccc4c3)c2cc1OC`: the IC50 was found to be 105 nM.

`c1ccc2c(c1)oc1ccc(Cc3cncc4cc5c(cc34)OCCO5)cc12`: the IC50 amounted to 7560 nM. For `COc1cc2cncc(Cc3ccc4c(c3)Cc3ccccc3-4)c2cc1OC`, the 50% inhibitory concentration (IC50) came to 110 nM.

As for `CCCc1ncc(Cc2cnc3cc(C)ccc3c2)c2cc(OC)c(OC)cc12`, the IC50 was found to be 5.2 nM. In the case of `COc1cc2cncc(Cc3cnc4cc(C)ccc4c3)c2cc1OC`, the IC50 stood at 1.2 nM. Under `c1ccc2c(c1)oc1ccc(Cc3cncc4cc5c(cc34)OCO5)cc12` stands 3170 nM; under `COc1cc2cncc(Cc3ccc4cccc(OCC(N)=O)c4n3)c2cc1OC`, 21 nM. Under `CCc1ncc(Cc2cc3cc(OC)ccc3nc2O)c2cc(OC)c(OC)cc12` stands 44 nM. Turning to `COc1ccc2cc(Cc3cncc4cc(OC)c(OC)cc34)ccc2c1`, the half-inhibitory concentration (IC50) turned out to be 54 nM. Take `COc1cc2c(Cc3ccc4nc(C)ccc4c3)cnc(C3CCCCC3)c2cc1OC`: the half-inhibitory concentration (IC50) was determined as 368 nM. For the compound `CCCOc1cccc2ccc(Cc3cncc4cc(OC)c(OC)cc34)nc12`, the IC50 amounted to 315 nM. For `COc1cc2cncc(Cc3cc4ccccc4cn3)c2cc1OC`, the concentration for half-maximal inhibition (IC50) was 30 nM.

On to `COc1cc2cncc(Cc3ccc4nc(C)ccc4c3)c2cc1OC`, for which the IC50 amounted to 6.5 nM. `CCOc1c(Cc2cncc3cc(OC)c(OC)cc23)cnc2c1cnn2CC`: the IC50 is 3560 nM. Take `COc1cc2cncc(Cc3ccc4[nH]cnc4c3)c2cc1OC`: the IC50 came to 74 nM. Consider `CCCc1ncc(Cc2ccc3oc4ccccc4c3c2)c2cc(OC)c(OC)cc12`, for which the IC50 is 278 nM.

For `COc1cc2cncc(Cc3coc4ccc(C)cc4c3=O)c2cc1OC`, the half-maximal inhibitory concentration (IC50) was 5.1 nM.

For the compound `COc1cc2cncc(Cc3ccc4oc5ccccc5c4c3)c2cc1OC`, the IC50 is 7.6 nM. As for `COc1cc2cncc(Cc3cc4ccccc4nc3N(C)C)c2cc1OC`, the IC50 worked out at 142 nM. `COc1ccc2nc(O)c(Cc3cncc4cc(OC)c(OC)cc34)cc2c1`: the half-maximal inhibitory concentration (IC50) turned out to be 25 nM. `CCc1ncc(Cc2ccc3nc(C)ccc3c2)c2cc(OC)c(OC)cc12`: the IC50 was determined as 28 nM. Regarding `CCCc1ncc(Cc2ccc3cccc(NS(N)(=O)=O)c3n2)c2cc(OC)c(OC)cc12`, the IC50 was 0.82 nM. On to `COc1cc2cncc(Cc3ccc4ccccc4n3)c2cc1OC`, for which the half-inhibitory concentration (IC50) turned out to be 208 nM.

Take `COc1cc2cnc(C)c(Cc3ccc4ccccc4c3)c2cc1OC`: the 50% inhibitory concentration (IC50) was determined as 1070 nM.

In the case of `CCc1ncc(Cc2ccc3cccc(NS(C)(=O)=O)c3n2)c2cc(OC)c(OC)cc12`, the 50% inhibitory concentration (IC50) amounted to 8.3 nM. Turning to `CCCc1ncc(Cc2ccc3cccc(O)c3n2)c2cc(OC)c(OC)cc12`, the IC50 was 20 nM. Under `CCOc1cc2cncc(Cc3cnc4ccccc4c3)c2cc1OCC` stands 168 nM. Consider `CCCCc1ncc(Cc2cnc3cc(C)ccc3c2)c2cc(OC)c(OC)cc12`, for which the 50% inhibitory concentration (IC50) stood at 946 nM.

As for `COc1cc2c(Cc3ccc4nc(C)ccc4c3)cnc(CC(C)C)c2cc1OC`, the IC50 was 31 nM. Regarding `COc1cc2cncc(Cc3ccc4c(c3)oc(=O)n4C)c2cc1OC`, the IC50 was determined as 3.6 nM. With `CCCc1ncc(Cc2cc3ccccc3nc2O)c2cc(OC)c(OC)cc12`, the half-maximal inhibitory concentration (IC50) is 36 nM.

`COc1cc2cncc(Cc3cc4ccccc4nc3Cl)c2cc1OC`: the IC50 turned out to be 95 nM.

For `CCCc1ncc(Cc2cc3cc(OC)ccc3nc2OCCNC(C)=O)c2cc(OC)c(OC)cc12`, the half-inhibitory concentration (IC50) was 65 nM.

For `CCc1ncc(Cc2ccc3cccc(NC(C)=O)c3n2)c2cc(OC)c(OC)cc12`, the IC50 amounted to 17 nM. Take `CCCCc1ncc(Cc2ccc3nc(C)ccc3c2)c2cc(OC)c(OC)cc12`: the IC50 came out at 154 nM. As for `CCCc1ncc(Cc2ccc3c(c2)oc(=O)n3C)c2cc(OC)c(OC)cc12`, the figure is 4.4 nM. Consider `CCn1ncc2c(Cl)c(Cc3cncc4cc(OC)c(OC)cc34)cnc21`, for which the IC50 came to 330 nM. For the compound `CCCCc1ncc(Cc2cnc3ccccc3c2)c2cc(OC)c(OC)cc12`, the IC50 is 92 nM. For the compound `COc1cc2cncc(Cc3ccc4cccc(OCc5cccnc5)c4n3)c2cc1OC`, the IC50 came to 90 nM.

Consider `COc1cc2cncc(Cc3ccc4ncccc4c3)c2cc1OC`, for which the IC50 worked out at 54 nM. For `COc1cc2c(Cc3ccc4nc(C)ccc4c3)cnc(C3CC3)c2cc1OC`, the IC50 was found to be 25 nM. For the compound `CCCc1ncc(Cc2cc3cc(OCC)ccc3nc2O)c2cc(OC)c(OC)cc12`, the IC50 stood at 99 nM. Turning to `CCc1ncc(Cc2ccc3cccc(NS(N)(=O)=O)c3n2)c2cc(OC)c(OC)cc12`, the half-inhibitory concentration (IC50) stood at 0.53 nM.

Consider `COc1ccc2cc(Cc3cncc4cc(OC)c(OC)cc34)cnc2c1`, for which the IC50 was determined as 18 nM. As to `COc1cc2cncc(Cc3ccc4cccc(OCc5ccncc5)c4n3)c2cc1OC`, the half-inhibitory concentration (IC50) worked out at 213 nM. `COc1cc2cncc(Cc3ccc4c(c3)CCN4C)c2cc1OC`: the IC50 was found to be 132 nM. As to `CCc1ncc(Cc2ccc3cccc(NS(=O)(=O)CC)c3n2)c2cc(OC)c(OC)cc12`, the half-maximal inhibitory concentration (IC50) came to 3.5 nM.

Consider `COc1cc2cncc(Cc3ccc4c(c3)OCCN4C)c2cc1OC`, for which the IC50 came out at 70 nM.

As for `CCn1ncc2c(O)c(Cc3cncc4cc(OC)c(OC)cc34)cnc21`, the half-maximal inhibitory concentration (IC50) amounted to 238 nM. Take `COc1cc2cncc(Cc3coc4ccccc4c3=O)c2cc1OC`: the IC50 was 41 nM.
